In ChEMBL document CHEMBL4145553, “Design, synthesis, and biological evaluation of novel amide and hydrazide based thioether analogs targeting Histone deacteylase (HDAC) enzymes” (Eur J Med Chem, 2018):
Calls of active or inactive are those of the source. No cut-off for these calls is given here.

Columns and labels:
EKVX = experiment: Growth inhibition of human EKVX cells assessed as cell growth at 10^-8 M incubated for 48 hrs by sulforhodamine B assay relative to control; assay type: functional; details: read-out: Activity
NCI-H522 = experiment: Growth inhibition of human NCI-H522 cells assessed as cell growth at 10^-8 M incubated for 48 hrs by sulforhodamine B assay relative to control; assay type: functional; details: NCI-H522, 48 h, read-out: Activity
LOX IMVI = experiment: Growth inhibition of human LOXIMVI cells assessed as cell growth at 10^-7 M incubated for 48 hrs by sulforhodamine B assay relative to control; assay type: functional; details: read-out: Activity
IGROV-1 = experiment: Growth inhibition of human IGROV1 cells incubated for 48 hrs by sulforhodamine B assay; assay type: functional; details: IGROV-1, 48 h
HL-60 = experiment: Induction of apoptosis in human HL60 cells assessed as necrotic cells by propidium iodide/Annexin V staining based flow cytometry (reference value: 0.34%); assay type: functional
ACHN [1] = experiment: Growth inhibition of human ACHN cells assessed as cell growth at 10^-6 M incubated for 48 hrs by sulforhodamine B assay relative to control; assay type: functional; details: read-out: Activity
CCRF-CEM [2] = experiment: Growth inhibition of human CCRF-CEM cells assessed as cell growth at 10^-4 M incubated for 48 hrs by sulforhodamine B assay relative to control; assay type: functional; details: read-out: Activity
MDA-MB-435 [3] = experiment: Downregulation of HDAC2 mRNA expression in human MDA-MB-435 cells by qRT-PCR method relative to control; assay type: functional
CCRF-CEM [4] = experiment: Growth inhibition of human CCRF-CEM cells assessed as cell growth at 10^-6 M incubated for 48 hrs by sulforhodamine B assay relative to control; assay type: functional; details: read-out: Activity
UACC-62 [5] = experiment: Growth inhibition of human UACC62 cells assessed as cell growth at 10^-6 M incubated for 48 hrs by sulforhodamine B assay relative to control; assay type: functional; details: UACC-62, 48 h, read-out: Activity
DU-145 = experiment: Growth inhibition of human DU145 cells assessed as cell growth at 10^-7 M incubated for 48 hrs by sulforhodamine B assay relative to control; assay type: functional; details: DU-145, 48 h, read-out: Activity
M14 = experiment: Growth inhibition of human M14 cells assessed as cell growth at 10^-5 M incubated for 48 hrs by sulforhodamine B assay relative to control; assay type: functional; details: M14, 48 h, read-out: Activity
SW-620 = experiment: Growth inhibition of human SW620 cells assessed as cell growth at 10^-8 M incubated for 48 hrs by sulforhodamine B assay relative to control; assay type: functional; details: SW-620, 48 h, read-out: Activity
SK-MEL-2 = experiment: Growth inhibition of human SK-MEL-2 cells incubated for 48 hrs by sulforhodamine B assay; assay type: functional; details: SK-MEL-2, 48 h
SNB-75 = experiment: Growth inhibition of human SNB75 cells assessed as cell growth at 10^-8 M incubated for 48 hrs by sulforhodamine B assay relative to control; assay type: functional; details: SNB-75, 48 h, read-out: Activity
RXF 393 = experiment: Growth inhibition of human RXF393 cells assessed as cell growth at 10^-4 M incubated for 48 hrs by sulforhodamine B assay relative to control; assay type: functional; details: RXF 393, 48 h, read-out: Activity
SN12C = experiment: Growth inhibition of human SN12C cells assessed as cell growth at 10^-6 M incubated for 48 hrs by sulforhodamine B assay relative to control; assay type: functional; details: read-out: Activity
MCF7 = experiment: Growth inhibition of human MCF7 cells assessed as cell growth at 10^-6 M incubated for 48 hrs by sulforhodamine B assay relative to control; assay type: functional; details: MCF7, 48 h, read-out: Activity
COLO 205 = experiment: Growth inhibition of human COLO205 cells assessed as cell growth at 10^-6 M incubated for 48 hrs by sulforhodamine B assay relative to control; assay type: functional; details: COLO 205, 48 h, read-out: Activity
MDA-MB-435 [6] = experiment: Induction of apoptosis in human MDA-MB-435 cells assessed as increase in gammaH2ax expression by qRT-PCR method; assay type: functional, cell-based
A498 = experiment: Growth inhibition of human A498 cells assessed as cell growth at 10^-4 M incubated for 48 hrs by sulforhodamine B assay relative to control; assay type: functional; details: A498, 48 h, read-out: Activity
MDA-MB-435 [7] = experiment: Induction of apoptosis in human MDA-MB-435 cells assessed as increase in caspase-3 expression by qRT-PCR method; assay type: functional, cell-based
Histone deacetylase 3 = Histone deacetylase 3 (Homo sapiens, UniProt O15379); experiment: Inhibition of HDAC3 (unknown origin) by ELISA
T47D = experiment: Growth inhibition of human T47D cells assessed as cell growth at 10^-7 M incubated for 48 hrs by sulforhodamine B assay relative to control; assay type: functional; details: read-out: Activity
SR = experiment: Growth inhibition of human SR cells incubated for 48 hrs by sulforhodamine B assay; assay type: functional
SK-OV-3 = experiment: Growth inhibition of human SKOV3 cells assessed as cell growth at 10^-7 M incubated for 48 hrs by sulforhodamine B assay relative to control; assay type: functional; details: SK-OV-3, 48 h, read-out: Activity
OVCAR-8 = experiment: Growth inhibition of human OVCAR8 cells assessed as cell growth at 10^-5 M incubated for 48 hrs by sulforhodamine B assay relative to control; assay type: functional; details: OVCAR-8, 48 h, read-out: Activity
UACC-62 [8] = experiment: Growth inhibition of human UACC62 cells assessed as cell growth at 10^-4 M incubated for 48 hrs by sulforhodamine B assay relative to control; assay type: functional; details: UACC-62, 48 h, read-out: Activity
Hs-578T = experiment: Growth inhibition of human Hs 578T cells assessed as cell growth at 10^-6 M incubated for 48 hrs by sulforhodamine B assay relative to control; assay type: functional; details: read-out: Activity
HCT-15 = experiment: Growth inhibition of human HCT15 cells assessed as cell growth at 10^-4 M incubated for 48 hrs by sulforhodamine B assay relative to control; assay type: functional; details: HCT-15, 48 h, read-out: Activity
ACHN [9] = experiment: Growth inhibition of human ACHN cells assessed as cell growth at 10^-5 M incubated for 48 hrs by sulforhodamine B assay relative to control; assay type: functional; details: read-out: Activity
SF-539 = experiment: Growth inhibition of human SF539 cells assessed as cell growth at 10^-7 M incubated for 48 hrs by sulforhodamine B assay relative to control; assay type: functional; details: SF-539, 48 h, read-out: Activity
MDA-MB-435 [10] = experiment: Downregulation of HDAC3 mRNA expression in human MDA-MB-435 cells by qRT-PCR method; assay type: functional, cell-based
MDA-MB-435 [11] = experiment: Downregulation of HDAC1 mRNA expression in human MDA-MB-435 cells by qRT-PCR method; assay type: functional, cell-based
[12] = read-out: LC50 (the source's name)
[13] = read-out: pLC50 (the source's name) (converted)

Chain of Histone deacetylase 3 (O15379 whole entry): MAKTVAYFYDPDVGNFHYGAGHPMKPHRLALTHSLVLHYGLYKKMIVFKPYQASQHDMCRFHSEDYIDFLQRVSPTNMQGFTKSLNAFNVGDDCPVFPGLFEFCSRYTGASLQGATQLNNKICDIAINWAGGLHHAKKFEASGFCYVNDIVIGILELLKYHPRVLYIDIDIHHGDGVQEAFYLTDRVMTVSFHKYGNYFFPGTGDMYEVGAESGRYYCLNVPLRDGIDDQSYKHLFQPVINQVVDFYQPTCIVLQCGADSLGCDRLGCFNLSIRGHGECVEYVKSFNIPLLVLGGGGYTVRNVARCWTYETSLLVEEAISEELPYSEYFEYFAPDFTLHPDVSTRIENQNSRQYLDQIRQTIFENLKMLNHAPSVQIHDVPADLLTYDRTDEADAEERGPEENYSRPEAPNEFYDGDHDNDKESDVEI

SMILES: CCS/C(Nc1ccccc1)=C(\C#N)C(=O)Nc1ccc(OC)cc1
- growth at 0.01 µM (EKVX): 89%
- growth at 0.01 µM (NCI-H522): 107%
- growth at 0.1 µM (LOX IMVI): 96%
- GI50 (IGROV-1; read-out: GI50): 5.3 µM
- CC50 (IGROV-1; [12]): > 100 µM
- TGI (IGROV-1; read-out: TGI): > 100 µM
- GI50 (IGROV-1; read-out: pGI50 (converted)): 5.25 µM
- CC50 (IGROV-1; [13]): > 100 µM
- TGI (IGROV-1; read-out: pTGI): > 100 µM
- Activity (HL-60): 1.98%
- growth at 1 µM (ACHN [1]): 90%
- growth at 100 µM (CCRF-CEM [2]): 7%
- fold change (FC) (MDA-MB-435 [3]): <=10
- growth at 1 µM (CCRF-CEM [4]): 64%
- growth at 1 µM (UACC-62 [5]): 71%
- growth at 0.1 µM (DU-145): 96%
- growth at 10 µM (M14): 10%
- growth at 0.01 µM (SW-620): 97%
- GI50 (SK-MEL-2; read-out: GI50): 3.01 µM
- CC50 (SK-MEL-2; [12]): > 100 µM
- TGI (SK-MEL-2; read-out: TGI): > 100 µM
- GI50 (SK-MEL-2; read-out: pGI50 (converted)): 3.02 µM
- CC50 (SK-MEL-2; [13]): > 100 µM
- TGI (SK-MEL-2; read-out: pTGI): > 100 µM
- growth at 0.01 µM (SNB-75): 94%
- growth at 100 µM (RXF 393): -20%
- growth at 1 µM (SN12C): 96%
- growth at 1 µM (MCF7): 77%
- growth at 1 µM (COLO 205): 96%
- Activity (MDA-MB-435 [6]): Active
- growth at 100 µM (A498): -12%
- Activity (MDA-MB-435 [7]): Active
- IC50 (Histone deacetylase 3): 0.064 µM
- growth at 0.1 µM (T47D): 89%
- GI50 (SR; read-out: GI50): 1.54 µM
- CC50 (SR; [12]): > 100 µM
- TGI (SR; read-out: TGI): > 100 µM
- GI50 (SR; read-out: pGI50 (converted)): 1.55 µM
- CC50 (SR; [13]): > 100 µM
- TGI (SR; read-out: pTGI): > 100 µM
- growth at 0.1 µM (SK-OV-3): 88%
- growth at 10 µM (OVCAR-8): 23%
- growth at 100 µM (UACC-62 [8]): 6%
- growth at 1 µM (Hs-578T): 84%
- growth at 100 µM (HCT-15): 4%
- growth at 10 µM (ACHN [9]): 33%
- growth at 0.1 µM (SF-539): 92%
- Activity (MDA-MB-435 [10]): Active
- Activity (MDA-MB-435 [11]): Active

SMILES: CCS/C(Nc1ccccc1)=C(\C#N)C(=O)N/N=C\c1ccc(Cl)cc1Cl
- growth at 0.01 µM (EKVX): 98%
- growth at 0.01 µM (NCI-H522): 109%
- growth at 0.1 µM (LOX IMVI): 96%
- GI50 (IGROV-1; read-out: GI50): 6.46 µM
- CC50 (IGROV-1; [12]): > 100 µM
- TGI (IGROV-1; read-out: TGI): > 100 µM
- GI50 (IGROV-1; read-out: pGI50 (converted)): 6.46 µM
- CC50 (IGROV-1; [13]): > 100 µM
- TGI (IGROV-1; read-out: pTGI): > 100 µM
- Activity (HL-60): 2.03%
- growth at 1 µM (ACHN [1]): 92%
- growth at 100 µM (CCRF-CEM [2]): 11%
- fold change (FC) (MDA-MB-435 [3]): <=10
- growth at 1 µM (CCRF-CEM [4]): 82%
- growth at 1 µM (UACC-62 [5]): 69%
- growth at 0.1 µM (DU-145): 98%
- growth at 10 µM (M14): -1%
- growth at 0.01 µM (SW-620): 97%
- GI50 (SK-MEL-2; read-out: GI50): 3.24 µM
- CC50 (SK-MEL-2; [12]): > 100 µM
- TGI (SK-MEL-2; read-out: TGI): 43.6 µM
- GI50 (SK-MEL-2; read-out: pGI50 (converted)): 3.24 µM
- CC50 (SK-MEL-2; [13]): > 100 µM
- TGI (SK-MEL-2; read-out: pTGI): 43.7 µM
- growth at 0.01 µM (SNB-75): 88%
- growth at 100 µM (RXF 393): -22%
- growth at 1 µM (SN12C): 96%
- growth at 1 µM (MCF7): 83%
- growth at 1 µM (COLO 205): 99%
- Activity (MDA-MB-435 [6]): Active
- growth at 100 µM (A498): -2%
- Activity (MDA-MB-435 [7]): Active
- IC50 (Histone deacetylase 3): 0.032 µM
- growth at 0.1 µM (T47D): 95%
- GI50 (SR; read-out: GI50): 3.45 µM
- CC50 (SR; [12]): > 100 µM
- TGI (SR; read-out: TGI): > 100 µM
- GI50 (SR; read-out: pGI50 (converted)): 3.47 µM
- CC50 (SR; [13]): > 100 µM
- TGI (SR; read-out: pTGI): > 100 µM
- growth at 0.1 µM (SK-OV-3): 86%
- growth at 10 µM (OVCAR-8): 27%
- growth at 100 µM (UACC-62 [8]): 12%
- growth at 1 µM (Hs-578T): 75%
- growth at 100 µM (HCT-15): 11%
- growth at 10 µM (ACHN [9]): 43%
- growth at 0.1 µM (SF-539): 94%
- Activity (MDA-MB-435 [10]): Active
- Activity (MDA-MB-435 [11]): Active
